According to US8231891B2, “Implantable drug depot for weight control” (Warsaw Orthopedic, Inc., priority 2009, dated 2012):

Experiments:
[1] = long term use of the drug; cited from earlier work
[2] = Weight gain of rats receiving fluocinolone by daily subcutaneous injection; type: in vivo, Wistar rats; conditions: FIG. 39; systemic subcutaneous injection, 25 ug/kg daily for 22 days
Description: Forty Wistar rats were utilized in this study. The forty rats were divided into 4 groups. Group 1 rats (10 in total) each received fluocinolone acetonide via systemic subcutaneous injection at a dosage of 0.5 ug/kg daily. Group 2 rats (10 in total) each received fluocinolone acetonide via systemic subcutaneous injection at a dosage of 5 ug/kg daily. Group 3 rats (10 in total) each received fluocinolone acetonide via systemic subcutaneous injection at a dosage of 25 ug/kg daily. Group 4 rats (10 in total) were the control in this study and received saline injections.

SMILES | average weight loss [1] | body weight increase compared to control rats (saline) [2]
Cc1c(C(=O)NN2CCCCC2)nn(-c2ccc(Cl)cc2Cl)c1-c1ccc(Cl)cc1 [Rimonabant] | 10.4 lbs | –
CC(C)CC(N(C)C)C1(c2ccc(Cl)cc2)CCC1 (stereo not shown) [Sibutramine] | 9.3 lbs | –
CC1(C)O[C@@H]2C[C@H]3[C@@H]4C[C@H](F)C5=CC(=O)C=C[C@]5(C)[C@@]4(F)[C@@H](O)C[C@]3(C)[C@]2(C(=O)CO)O1 [fluocinolone acetonide, 6α-,9α-Difluoro-16 α-hydroxyprednisolone 16,17-acetonide] | – | did not exhibit as much body weight increase as control rats
CCCCCCCCCCC[C@@H](C[C@@H]1OC(=O)[C@H]1CCCCCC)OC(=O)[C@H](CC(C)C)NC=O [Orlistat] | 6.4 lbs | –
